Reference: article PMC7038139, “Novel Peptide CM 7 Targeted c-Met with Antitumor Activity” (Molecules, 2020)
Entries after “also recorded” stand apart in the source; their conditions may differ.

Assays:
[1] = tested on: c-Met and its downstream signaling molecules in MKN-45 xenografts; assay: Western blot of c-Met signaling in xenograft tumors; type: in vivo, Human; conditions: n = 3
Method: Western blot analysis was performed using an extraction buffer as described. MKN-45, MKN-28 and U87 cells were cultured in serum-free medium overnight, then treated with the indicated dose of peptide CM 7 for 24 h at 37 °C after stimulated without or with HGF for 15 min. Next, total cell lysates were separated by 12% SDS-polyacrylamide gel (SDS-PAGE) and transferred to polyvinylidene difluoride (PVDF) membranes. The PVDF membranes were probed with following primary antibodies: anti-phospho-Met (Tyr1234/1235, (Cell Signaling Technology, Beverly, MA, USA), anti-Met (Affinity, USA), anti-phospho-AKT (Ser473, (Affinity, USA)), anti-AKT (Affinity, USA), anti-phospho-Erk1/2 (Thr202/Tyr204, (Affinity, USA)), anti-Erk1/2 (Affinity, USA), anti-E-cadherin (WanleiBio, Shengyang, China), and anti-GAPDH (Multi Sciences, Hangzhou, China). Then, horseradish-peroxidase-conjugated anti-rabbit IgG was used as a second antibody. The immunoreactive proteins were exposed using an enhanced chemiluminescence detection reagent (WanleiBio, Shengyang, China). After sacrificing the mice and isolating the tumor tissue, Western blot was performed as previously described.

[2] = tested on: MKN-45 tumor xenografts; assay: MKN-45 xenograft antitumor activity in nude mice; type: in vivo, Human
Method: Four-to-five-week-old female Balb/c nude mice, housed in specific pathogen-free conditions, were used to evaluate antitumor activity in vivo. All animal studies were performed according to the institutional ethical guidelines for animal care.
MKN-45 cells at a density of 5 × 10^6 in 200 μL were injected subcutaneously into the flank of the mice. CM 7 (5, 10, or 20 mg/kg) was injected subcutaneously for each group twice a day for four weeks. As a positive control, Crizotinib (50 mg/kg) was given to tumor-bearing mice by gavage once a day for a total of 28 days. The tumor volume was measured with calipers in two dimensions: tumor volume = 1/2 × a × b^2, where a is the length of the tumor, and b is the width of the tumor. All of the mice were sacrificed on day 42, and the tumor tissue was isolated and weighed.

[3] = tested on: MDCK cells; assay: Cell scatter assay (HGF-induced); type: cell-based, canine; conditions: HGF 100 ng/mL, 24 h, 37 °C
Method: MDCK cells were detached from the tissue culture plate and seeded in 96-well plates at the final concentration of 1.5 × 10^3 cells/well overnight. Different concentrations of CM 7 without or with HGF (100 ng/mL) were added to the preset wells. After incubating for 24 h at 37 °C and 5% CO2, 4% paraformaldehyde was used to fix the cells, which were then stained with 0.2% crystal violet. The plates were washed with clean water. When dried, an Olympus IX53 microscope was used to capture the images.

[4] = tested on: MKN-45 cells; assay: Transwell invasion assay; type: cell-based, Human; conditions: Matrigel-coated Transwell, 8 μm pores; 48 h; n = 3; dose-dependent
Method: For the invasion assay, a chamber was placed into a 24-well culture plate with 600 μL RPMI 1640 medium containing 10% FBS. MKN-45 cells were resuspended in serum-free medium and cultured on the upper compartment of the Transwell chamber (1.0 × 10^5 cells/well; pore size, 8 μm; Merck Millipore, Germany) coated with Matrigel. CM 7 and Crizotinib were added to the top side of the membrane at the indicated concentrations. After 48 h, the noninvaded cells were removed, and the invaded cells were fixed with ethanol and stained with crystal violet solution (0.1%) for 15 min at room temperature. The experiment was performed in triplicate, and images were obtained using an Olympus IX53 microscope (Olympus, Japan).

[5] = tested on: U87 cells; assay: Cell proliferation assay, U87 (HGF-stimulated); type: cell-based, human; conditions: CM 7, various concentrations; 20 ng/mL HGF; 4 days; serum-free medium; cell count; means of six determinations
Method: Human gastric cancer cell line MKN-45 cells were from the Chinese Academy of Medical Sciences, Beijing, China. Human gastric cancer cell line MKN-28 cells, the human glioma cell line U87 cells, and MDCK cells were obtained from the American Type Culture Collection (ATCC). The MKN-45 and MKN-28 cells were grown under a humidified atmosphere of 5% CO2 at 37 °C in RPMI 1640 medium (Biological Industries, Israel), supplemented with 10% fetal bovine serum (FBS, Biological Industries, Israel), 2 mmol/L L-glutamine (Gibco, Life Technologies, Grand Island, NY, USA), 100 U/mL penicillin, and 100 μg/mL streptomycin (Invitrogen, Carlsbad, CA, USA). MDCK and U87 cells were cultured under a humidified atmosphere of 5% CO2 at 37 °C in Dulbecco’s modified Eagle’s medium (DMEM) (Gibco, Life Technologies, Grand Island, NY, USA), supplemented with 10% FBS, 2 mmol/L L-glutamine (Gibco, Life Technologies, Grand Island, NY, USA), 100 U/mL penicillin, and 100 μg/mL streptomycin (Invitrogen, Carlsbad, CA, USA).
As described in the literature, MKN-45, MKN-28, and U87 cells were seeded into 48-well culture plates (6500 cells/well) and cultured overnight. […] After 4 days, the cells were trypsinized and counted by a cell counter. […]

DQIIANN [CM 7, Novel peptide DQIIANN targeting the tyrosine kinase receptor c-Met]
Intratumoral expression of E-cadherin [1]: significantly increased
Intratumoral phosphorylation of c-Met, Akt or Erk [1]: markedly inhibited
Inhibition of tumor growth versus vehicle (PBS) ([2]; 20 mg/kg s.c. twice a day, 28 days, n = 5–6): significantly inhibited tumor growth
Inhibition of tumor growth relative to Crizotinib ([2]; CM 7 20 mg/kg s.c. twice a day vs Crizotinib 50 mg/kg by gavage daily, 28 days): weaker than the positive control group (Crizotinib)
Growth inhibition rate of tumor masses ([2]; xenograft mouse model using MKN-45 cells, dose not printed with the value (5, 10, 20 mg/kg s.c. twice a day tested)): 62%
Inhibition of growth of cell pseudopodia ([3]; 1 μM): completely inhibited
Inhibition of HGF-induced cell scattering ([3]; dose-dependent): moderate regulation; also recorded: remarkably inhibit the HGF-induced cell scattering of MDCK cells in a dose-dependent manner
Inhibition of cell invasion [4]: moderate regulation; also recorded: significantly inhibit cell invasion
Inhibition of cell proliferation [5]: inhibit the proliferation of MKN-45 or U87 cells to a certain extent with considerable dose dependence
